According to ChEMBL document CHEMBL4811263, “Tulipiferamide A, an Alkamide from Liriodendron tulipifera, Exhibits an Anti-Inflammatory Effect via Targeting IKKβ Phosphorylation” (J Nat Prod, 2021):

Columns and labels:
RAW264.7 = assay: Antiinflammatory activity in mouse RAW264.7 assessed as inhibition of LPS-induced NO production preincubated for 30 mins followed by LPS stimulation measured after 24 hrs by Griess reagent based assay; type: functional, cell-based
[1] = Inhibition of LPS-indued NF-kappaB activation in mouse RAW264.7 cells preincubated for 30 mins followed by LPS stimulation and measured after 10 hrs by luciferase assay; type: cell-based

IC50 (RAW264.7)	IC50 [1]	Structure (SMILES)
> 50 µM	–	C=CCc1cc(OC)c(OC(C)Cc2cc(OC)c(OC)c(OC)c2)c(OC)c1 (racemic)
12 µM	14.1 µM	C=C[C@]1(C)C[C@H](O)[C@H]2C(=C)C(=O)O[C@@H]2[C@H]1C(=C)C
19.8 µM	–	C=C1C(=O)O[C@@H]2/C=C(\C)CC/C=C(\C)C[C@@H](OC(C)=O)[C@@H]12
> 50 µM	–	CC(=O)N(C)CCc1ccccc1
> 50 µM	–	C/C=C/c1cc(OC)c(OC(C)Cc2cc(OC)c(OC)c(OC)c2)c(OC)c1 (racemic)
> 50 µM	–	C=C1C(=O)O[C@@H]2/C=C(\C)CC/C=C(\C)CC[C@@H]12 [COSTUNOLIDE]
> 50 µM	–	COc1cc(C(=O)C2CO[C@H](c3cc(OC)c(O)c(OC)c3)[C@H]2CO)cc(OC)c1O (stereo partly specified)
> 50 µM	–	O=C(NCCc1ccccc1)c1ccccc1
> 50 µM	–	COc1cc([C@H]2OC[C@H]3[C@@H]2CO[C@@H]3c2cc(OC)c(O)c(OC)c2)cc(OC)c1O [SYRINGARESINOL]
7.3 µM	12.2 µM	C=C1C(=O)O[C@@H]2/C=C(\C)CC/C=C(\C)C[C@@H](O)[C@@H]12 [EUPATOLIDE]
> 50 µM	–	COc1c2c3c(c(OC)c1OC)-c1cc4c(cc1C[C@@H]3N(C(C)=O)CC2)OCO4
> 50 µM	–	COc1c2c(c3c4c(nccc14)C(=O)c1ccccc1-3)OCO2
> 50 µM	–	COc1cc(C=O)ccc1O [VANILLIN]
> 50 µM	–	CCCCC/C=C/C=C\C(=O)NCCc1ccccc1
> 50 µM	–	CC(=O)N1CCc2cc3c(c4c2[C@H]1Cc1ccccc1-4)OCO3
35.5 µM	–	CNC(=N)NCCC[C@H](N)C(=O)O [TILARGININE]
14 µM	24.5 µM	COc1c2c3c(c(OC)c1OC)-c1ccccc1C[C@H]3N(C(C)=O)CC2

Structure (SMILES)	IC50 (RAW264.7)	IC50 [1]
O=Cc1ccc(O)cc1 [4-HYDROXYBENZALDEHYDE]	> 50 µM	–
